# Laboratory results taken from the supplement of paper PMC4862054.
# Legend:
# Experiment in all cases: normalised response (% of control), CellTiter-Glo; higher = more viable cells (100 = DMSO, 0 = benzethonium chloride kill control)
# Settings in all cases: incubation time: 72 h
# BT-549 = tested on: BT-549
# Method in brief: (§1)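 After 72 h with compound in 384-well plates, breast cancer cell lines seeded as 20 µl suspension were read for CellTox Green fluorescence at 485/520 nm. CellTiter-Glo luminescence was then read after 10 min at room temperature. Compound was present at 5 concentrations in 10-fold steps over a 10,000-fold range set per compound, and plates were normalised to 0.1 % DMSO (100) and a positive kill control (0). Values are normalised signals, each at a single concentration.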
# CAL-120 = tested on: CAL-120
# Method in brief: as §1
# CAL-85-1 = tested on: CAL-85-1
# Method in brief: as §1
# DU-4475 = tested on: DU-4475
# Method in brief: as §1
# Hs578T = tested on: Hs578T
# Method in brief: as §1
# MCF-10A = tested on: MCF-10A
# Method in brief: as §1
# MDA-MB-436 = tested on: MDA-MB-436
# Method in brief: as §1
# MDA-MB-453 = tested on: MDA-MB-453
# Method in brief: as §1
# SK-BR-3 = tested on: SK-BR-3
# Method in brief: as §1
SMILES,normalised response (BT-549) [%],normalised response (CAL-120) [%],normalised response (CAL-85-1) [%],normalised response (DU-4475) [%],normalised response (Hs578T) [%],normalised response (MCF-10A) [%],normalised response (MDA-MB-436) [%],normalised response (MDA-MB-453) [%],normalised response (SK-BR-3) [%]
COc1cccc2c1C(=O)c1c(O)c3c(c(O)c1C2=O)C[C@@](O)(C(C)=O)C[C@@H]3O[C@H]1C[C@H](N)[C@H](O)[C@H](C)O1 [Daunorubicin] (1000 nM),10.7,41.2,7.68,0.14,35.1,27.1,22.8,4.31,11.6
C[C@@H]1C=C2C(=O)O[C@@H]3CC[C@H](C1)[C@]23O [Galiellalactone] (50000 nM),44.3,105,72.2,102,101,106,89.5,105,107
COC1=CC(c2cc3ccccc3[nH]2)=N/C1=C\c1[nH]c(C)cc1C [Obatoclax] (10000 nM),29.3,92.5,76.3,84,74.7,95.8,81.6,57.5,64.3
CCOc1cc2ncc(C#N)c(Nc3ccc(OCc4ccccn4)c(Cl)c3)c2cc1NC(=O)/C=C/CN(C)C [Neratinib] (1000 nM),56.1,68.4,42.6,95.3,72.3,25.4,56.3,63.7,16.2
CN1CCN(c2ccc3nc(-c4c(N)c5c(F)cccc5[nH]c4=O)[nH]c3c2)CC1 [Dovitinib] (10000 nM),95.6,89.4,95.9,99.9,95.8,100,87.6,96.4,91.5
COc1ccc(C2=N[C@@H](c3ccc(Cl)cc3)[C@@H](c3ccc(Cl)cc3)N2C(=O)N2CCNC(=O)C2)c(OC(C)C)c1 [Nutlin-3] (10000 nM),87,100,97.3,72.7,102,89.2,102,68.7,99.1
CC(=O)O[C@H]1C(=O)[C@@]2(C)[C@H]([C@H](OC(=O)c3ccccc3)[C@]3(O)C[C@H](OC(=O)[C@H](O)[C@@H](NC(=O)c4ccccc4)c4ccccc4)C(C)=C1C3(C)C)[C@]1(OC(C)=O)CO[C@@H]1C[C@@H]2O [Paclitaxel] (1000 nM),12.1,48.9,20.4,34.8,9.73,32.3,27,51.5,11.2
CC(C)(C)c1cc(NC(=O)Nc2ccc(-c3cn4c(n3)sc3cc(OCCN5CCOCC5)ccc34)cc2)no1 [Quizartinib] (1000 nM),91.7,112,106,105,92.6,109,109,97,103
O=c1[nH]cc(F)c(=O)[nH]1 [Fluorouracil] (10000 nM),91.7,95.5,57.5,99.5,93.7,88.4,75.8,94.8,74.8
CCS(=O)(=O)c1cccc(-c2cc(C(=O)NC3CCN(C)CC3)c(C)c3[nH]c4ncc(C)cc4c23)c1 [TAK-901] (1000 nM),28.7,52.8,73.4,84.9,75.2,25.4,57,104,80.4
O=C(c1ccc(OCCN2CCCCC2)cc1)c1c(-c2ccc(O)cc2)sc2cc(O)ccc12 [Raloxifene] (10000 nM),70.7,82.2,76.7,90.1,96.9,107,71.8,66.1,82.7
C#Cc1cccc(Nc2ncnc3cc(OC)c(OCCCCCCC(=O)NO)cc23)c1 [CUDC-101] (10000 nM),18,38.6,1.02,5.82,6.2,8.27,33.5,4.64,0.76
COC1=C2C[C@@H](C)C[C@H](OC)[C@H](O)[C@@H](C)/C=C(\C)[C@H](OC(N)=O)[C@@H](OC)/C=C\C=C(/C)C(=O)NC(=CC1=O)C2=O [Geldanamycin] (10000 nM),19.2,26.7,10.5,0.14,16.8,10.7,24.4,29.5,30.7
